# Data published in ChEMBL document CHEMBL1153660, “Synthesis and pharmacological properties of BW315c and other inotropic 2-arylimidazo[1,2-a]pyrazines” (Bioorg Med Chem Lett, 1993).
# Activity calls are given as the source filed them. The calls are words filed in the database; no cut-off is given here.
# How the values were obtained:
# Canis familiaris [1] = species: Canis familiaris; assay: 10% increase in heart rate in open chest dogs; format: functional; conditions: Canis lupus familiaris
# Canis familiaris [2] = species: Canis familiaris; assay: 30% decrease in diastolic blood pressure in open chest dogs; format: functional; conditions: Canis lupus familiaris, Artery
# Canis familiaris [3] = assay: Time required for inotropic response at 0.80 mg/kg dose; range 45-60; format: functional, Canis lupus familiaris; conditions: dose 0.8 mg/kg
# Canis familiaris [4] = assay: Time required for vasodilator response at 0.80 mg/kg dose; range 10-30; format: functional, Canis lupus familiaris; conditions: dose 0.8 mg/kg
# [5] = Ratio of ED50 (increased ventricular pressure) to ED30 (diastolic blood pressure); format: functional, Artery
# Canis familiaris [6] = assay: In vivo 50% increase in left ventricular pressure in open chest dogs; format: functional; conditions: Canis lupus familiaris, Heart left ventricle
# Cavia porcellus [7] = species: Cavia porcellus; assay: In vitro 50% increase in basal contractile force of paced guinea pig papillary muscle; format: functional, Muscle tissue
# Phosphodiesterase 3 = Phosphodiesterase 3 (Homo sapiens, UniProt Q14432+Q13370); assay: Concentration of compound required for 50% inhibition of type III cAMP phosphodiesterase from dog ventricles, activity expressed as pIC50; format: protein assay, Canis lupus familiaris
# Canis familiaris [8] = assay: Time required for vasodilator response at 0.80 mg/kg dose; range 15-30; format: functional, Canis lupus familiaris; conditions: dose 0.8 mg/kg
# Canis familiaris [9] = assay: Time required for inotropic response at 0.80 mg/kg dose; range 20-30; format: functional, Canis lupus familiaris; conditions: dose 0.8 mg/kg
# Canis familiaris [10] = assay: Time required for inotropic response at 0.80 mg/kg dose; format: functional, Canis lupus familiaris; conditions: dose 0.8 mg/kg
# Canis familiaris [11] = assay: Time required for vasodilator response at 0.80 mg/kg dose; format: functional, Canis lupus familiaris; conditions: dose 0.8 mg/kg
# Canis familiaris [12] = assay: Time required for vasodilator response at 0.80 mg/kg dose; range 2-15; format: functional, Canis lupus familiaris; conditions: dose 0.8 mg/kg
# Cavia porcellus [13] = species: Cavia porcellus; assay: In vitro 50% increase in basal contractile force of paced guinea pig papillary muscle (insoluble); format: functional, organism-based; conditions: Muscle tissue
# Cavia porcellus [14] = species: Cavia porcellus; assay: In vitro 50% increase in basal contractile force of paced guinea pig papillary muscle (inactive); format: functional; conditions: Muscle tissue
# Canis familiaris [15] = assay: Time required for inotropic response at 0.80 mg/kg dose; range 30-45; format: functional, Canis lupus familiaris; conditions: dose 0.8 mg/kg
# Canis familiaris [16] = assay: Time required for vasodilator response at 0.80 mg/kg dose; range 30-45; format: functional, Canis lupus familiaris; conditions: dose 0.8 mg/kg
SMILES,ED10 (Canis familiaris [1]) [mg/kg],ED30 (Canis familiaris [2]) [mg/kg],Ratio [5],ED50 (Canis familiaris [6]) [mg/kg],pA50 (Cavia porcellus [7]),Duration (Canis familiaris [10]) [min],Duration (Canis familiaris [11]) [min],other results
Cc1[nH]c(=O)c(C#N)cc1-c1ccncc1 [MILRINONE],0.02,0.06,0.3,0.02,,,,Duration (Canis familiaris [3]): 45 min; Duration (Canis familiaris [4]): 10 min
COc1cc([S+](C)[O-])ccc1-c1nc2cnccc2[nH]1 (stereo unspecified) [ISOMAZOLE],0.06,0.19,0.32,0.06,4.64,,,Log IC50 (Phosphodiesterase 3): -4.5; Duration (Canis familiaris [8]): 15 min; Duration (Canis familiaris [9]): 20 min
COc1cc([S+](C)[O-])ccc1-c1cn2ccnc(OC)c2n1 (stereo unspecified),0.11,1.17,0.08,0.09,4.82,60,2,Log IC50 (Phosphodiesterase 3): -4.4
COc1cc([S+](C)[O-])ccc1-c1nc2cccnc2[nH]1 (stereo unspecified) [SULMAZOLE],0.5,1.25,,0.8,4.7,30,30,
COc1cc([S+](C)[O-])ccc1-c1cn2cccnc2n1 (stereo unspecified),,,,2.4,4.63,,,
COc1cc([S+](C)[O-])ccc1-c1nc2c(OC)nccc2[nH]1 (stereo unspecified),,,,0.13,3.91,,,
COc1cc([S+](C)[O-])ccc1-c1cn2ccncc2n1 (stereo unspecified),0.28,0.03,25,0.75,5.39,5,>90,Log IC50 (Phosphodiesterase 3): -5
COc1cc(OS(C)(=O)=O)ccc1-c1nc2cc[nH]cc-2n1,,,,0.002,<5,,,
COc1cc(C(N)=O)ccc1-c1nc2cc[nH]cc-2n1,,,,0.01,4.43,,,
COc1cc(C(N)=O)ccc1-c1cn2ccncc2n1,0.02,0.05,0.4,0.02,4.68,>30,<5,
COc1cc(OS(C)(=O)=O)ccc1-c1cn2ccnc(OC)c2n1,0.05,0.06,1.2,0.07,,,,Duration (Canis familiaris [12]): 2 min; Duration (Canis familiaris [3]): 45 min; pA50 (Cavia porcellus [13]): Insoluble
COc1cc(OS(C)(=O)=O)ccc1-c1cn2ccncc2n1,,,,,,,,pA50 (Cavia porcellus [14]): inactive
COc1cc(C(N)=O)ccc1-c1cn2ccnc(OC)c2n1,0.06,0.15,0.04,0.06,,,,Duration (Canis familiaris [15]): 30 min; Duration (Canis familiaris [16]): 30 min; pA50 (Cavia porcellus [13]): Insoluble
